The nature of series [1]: Bovine liver microsome stability. It counts as in vitro ADME. Conditions: intrinsic clearance. The protocol: 2.2 Microsomal stability studies […]
(b) Bovine liver microsome stability. Test compounds (0.5 µM) were incubated with 0.5 mg/mL bovine liver microsomes (Xenotech LLC TM) in 50 mM potassium phosphate buffer, pH7.4 and the reaction initiated upon addition of excess NADPH (8 mg/mL in 50 mM potassium phosphate buffer, pH7.4).
Aliquots (50 µL) of the incubation mixture were taken at time zero, 3, 6, 9, 15 and 30 min then mixed with acetonitrile (100 µL) to stop the reaction. An internal standard was added to all samples, prior to centrifugation (10 min, 1,665 g, RT) to sediment precipitated protein. Reaction plates were then sealed prior to UPLCMSMS analysis using a Quattro Premier XE (Waters corporation, USA).
XLfit (IDBS, UK) was used to calculate the exponential decay and consequently the rate constant (k) from the ratio of peak area of test compound to internal standard at each timepoint. The rate of intrinsic clearance (CLi) of each test compound was then calculated using the following […]
CLi(mL/min/g liver) = k x V x microsomal protein yield
Where V (mL/mg protein) is the incubation volume/ mg protein added and microsomal protein yield is taken as 52.5 mg protein/ g of liver. Verapamil (0.5 µM) was used as a positive control to confirm acceptable assay performance. […]
(Liver microsomes are a subcellular fraction often used to study metabolism.)

Series [2] is described as follows: Aqueous kinetic solubility by laser nephelometry. It counts as physicochemical. Conditions: MilliQ water with 2.5% DMSO, read-out: Sol (kinetic solubility); for solubility kinetic: range 250-12 µM. The protocol: 2. Drug metabolism and pharmacokinetics
The aqueous solubility of test compounds was measured using laser nephelometry. Compounds were subject to serial dilution from 10 mM to 0.5 mM in DMSO. Aliquot were then mixed with MilliQ water to obtain an aqueous dilution plate with a final concentration range of 250 – 12 µM. The final DMSO concentration in these plates was 2.5%. Triplicate aliquots were transferred to a flat-bottomed polystyrene plate which was immediately read on a NEPHELOstar nephelometer (BMG Lab Technologies). The laser scatter caused by insoluble particulates (relative nephelometry units, RNU) was plotted against compound concentration using a segmental regression fit, with the point of inflection being quoted as the compound’s aqueous solubility (µM).
Solubility of compound 1 was measured by a different method. Here, compound 1 was dissolved in DMSO to give a 10 mM solution and solubility test samples prepared by adding a volume (5 µL) of this stock solution to phosphate buffered saline, pH 7.4 (195 µL, Sigma-Aldrich). This

Series [3] relates to T. congolense. Briefly: NMRI mouse efficacy model, T. congolense. It counts as in vivo, Trypanosoma congolense. The settings on record: mice; 10 mg/kg SC once daily for 4 days. The protocol: (§1) 3. In vivo efficacy studies
(§2) The T. congolense (IL3000) and T. vivax (ILRAD V34) cell lines7, 8, both originating from Kenya, were used in the following in vivo mouse studies. For studies in cattle, either Trypanosoma congolense (savannah) KONT 2/133, 224) or T. vivax STIB 719 was used.
(§3) 3.1 Mouse efficacy studies for T. brucei brucei.
(§4) Mouse efficacy studies for T. brucei brucei were carried out as previously detailed.9 3.2 NMRI mouse efficacy studies for T. congolense and T. vivax.
(§5) Mouse models of infections were carried out using standardized protocols. Briefly, 1 mL samples of cryopreserved T. congolense, or T. vivax-infected blood harvested directly from an infected mouse, were diluted with Hanks Balanced Salt Solution plus 20 mM glucose (HBSS+G) to 5 x 10^4 trypomastigotes/mL (5 x 105 for T. vivax). Female mice (NMRI) were inoculated IP on day 0 with 0.2 mL/animal (equivalent to ~ 1 x 104 T. congolense or ~ 1 x 105 T. vivax per animal). The level of parasitaemia was inspected microscopically on day 3 using tail blood smears, counting 20 high powered fields (× 400 magnification). For untreated or treated animals whose tail smears exceeded 50 parasites/field, precise parasite levels were established using a Neubauer haemocytometer; mice with a parasite burden over 1 x 108 were promptly and humanely terminated (T. congolense only, from our experience the mice will not survive for a further 24 h). Alternatively, in the case of T. vivax-infected mice the immune system will bring the infection to a sub-lethal level (below limit of detection) […]
(§6) followed by cycles of high and low parasitaemia. Eventually mice infected with T. vivax succumb to the infection between 30 – 60 days post-infection.
(§7) Suppression of parasitaemia - mouse
(§8) On day 3 post-infection, animals were randomly allocated to groups, with 3 mice/group. Infected animals were dosed with one of the following: diaminazene diaceturate IP. – 40 mg/kg once only as a control (early-stage trypanocide used to clear the parasites in the systemic circulation and in tissues other than CNS), compound 1 (SC) at 3, 10, 30 and 50 mg free base/kg twice and once daily for 4 d or a single dose, or compound 2 (SC) at 3 and 10 mg free base /kg once daily for 4 d, once daily for 2 d or a single dose, one group of 3 mice acted as an untreated control group. The dose solutions were prepared daily, using 5% DMSO: 40% PEG400: 55% MilliQ H2O for test compounds and 10% DMSO: 90% peanut oil for standard drugs. Alternatively, compound 2 was delivered for 48 h via SC implanted ALZET osmotic pumps (6, 12, 25 and 50 mg free base/mL, vehicle: 50% DMSO […]
(§9) and 50% deionized water).
(§10) Response to treatment was determined by monitoring parasitaemia twice a week until day 21.
(§11) After day 21, the mice were checked once a week until 63 d post-treatment. Mice surviving to the end of the experiment, and with blood smears clear of parasites, were considered cured. […]
(§12) The parasites were obtained from a donor calf. This isolate is resistant to diminazene (20 mg/kg) and isometamidium (1 mg/kg) in cattle, and diminazene (7 mg/kg) and isometamidium (>1 mg/kg) in mice. Calves were parasitaemic by study day 6. Calves (n = 5) were treated with compound 1 (5 mg/kg, SC, twice 12 h apart) on study

Series [4] relates to T. vivax. In words: NMRI mouse efficacy model, T. vivax. In kind it is in vivo, Trypanosoma vivax. Conditions: mice; 10 mg/kg SC once daily for 4 days. How it is done:
as §1, §2, §3, §4, §5, §6, §7, §8, §9, §10, §11, §12

The subject of series [5] is T. congolense. Briefly: In vitro drug sensitivity assay, T. congolense (IL3000). In kind it is cell-based. The settings on record: Trypanosoma congolense; IL3000 strain. The protocol: 1.2 In vitro drug sensitivity assays - Trypanosoma congolense
EC50 values for test compounds against T. congolense (IL3000 strain) were conducted as previously described3 with minor modifications.4 Briefly, trypanosome cell densities were determined using a CASY cell counter (Schärfe) and diluted to a seeding density of 2 x 105 trypanosomes/mL. BSF trypanosomes were grown in HMI-9 (IMDM) media supplemented with 20% (v/v) bovine serum.1 Test compounds were resuspended to a final concentration of 10 mg/mL in DMSO. Assays plates were incubated at 34 °C with 5 % CO2, for a total of 69 h, prior to addition of 10 µL of Resazurin (12.5 mg in 100 mL phosphate buffered saline, Aldrich) into each well, followed by a further 3 h incubation. Absorbance was read using a SpectraMax (Gemini XS) fluorescence reader at an excitation wavelength of 536 nm and an emission wavelength of 588 nm. EC50 values were determined using SOFTmax Pro 5.2 analysis software. All experiments were conducted with technical duplicates, and at least three biological replicates. […]

Series [6] has as its system T. vivax. Briefly: Ex vivo drug sensitivity assay, T. vivax (STIB 719/ILRAD 560). It counts as cell-based. The settings on record: Trypanosoma vivax. The protocol: Test compounds were resuspended to a final concentration of 10 mg/mL in DMSO. […]
1.3 Ex vivo drug sensitivity assays - Trypanosoma vivax
Since T. vivax cannot be cultured axenically, BSF trypanosomes were harvested from an infected mouse with high parasitemia via cardiac puncture and used directly in ex vivo assays. EC50 values were determined against T, vivax (STIB 719/ ILRAD 560) as previously described3, with minor modifications. Briefly, cell densities were determined using a Neubauer chamber and then diluted to a seeding density of 4 x 105 trypanosomes / mL. BSF trypanosomes were cultured in HMI-9 (IMDM) media containing 20% (v/v) bovine serum. Assay plates were incubated at 37 °C with 5 % CO2, for a total of 45 h prior to addition 10 µL of Resazurin (12.5 mg in 100 mL phosphate buffered saline, Aldrich) into each well, followed by a further 3 h incubation. Absorbance was read using a SpectraMax (Gemini XS) fluorescence reader at an excitation wavelength of 536 nm and an emission wavelength of 588 nm. EC50 values were determined using SOFTmax Pro 5.2 analysis […]
software. […]

A further series concerns L6 cells. Briefly: Cytotoxicity assay, rat skeletal myoblasts (L6). In kind it is cell-based. The protocol:
1.4 Cytotoxicity assays – Rat skeletal myoblasts (L6)
The cytotoxicity of test compounds was evaluated using a rat skeletal myoblast (L6) cell line, as previously described3, but with minor modifications. Cells were grown in RPMI media supplemented with 10% (v/v) fetal calf serum. L6 cells at a seeding density of 2 x 10^4 cells/mL were incubated in microtiter plates overnight at 37 °C and 5 % CO2 until adherent. The following day, test compounds were added to the plates (3-fold serial dilutions), prior to incubation for 69 h. Following incubation, 10 µL of Resazurin (12.5 mg in 100 mL phosphate buffered saline, Aldrich) was added to each well and the plates were incubated for a further 3 h. The plates were read using a SpectraMax (Gemini XS) fluorescence reader at an excitation wavelength of 536 nm and an emission wavelength of 588 nm. EC50 values were determined using SOFTmax Pro 5.2 analysis software. All experiments were conducted as technical replicates, with at least three biological replicates. […]

The kinetic solubility is solubility judged after dilution from a stock solution rather than from solid. As to `CC(C)CS(=O)(=O)N[C@H]1CC[C@H](Nc2nc(N)c(C(=O)c3c(F)cc(CN4CCN(C)CC4)cc3F)s2)CC1.Cl` [Compound 3, N-((trans)-4-((4-Amino-5-(2,6-difluoro-4-((4-methylpiperazin-1-yl)methyl)benzoyl)thiazol-2-yl)amino)cyclohexyl)-2-methylpropane-1-sulfonamide Hydrochloride], the “Bovine Microsome Cli (BLM: bovine microsomal clearance)” value (shortened to “Bovine Microsome Cli”) in series [1] was less than 0.5 mL/min/g. The solubility (kinetic) in series [2] is greater than 250 µM. The “Efficacy at 10 mg/kg SC for 4 days, T. congo” value (“Efficacy … T. congo” below) with T. congolense [3] was “Partial cure (1/3)”. In addition, the “Efficacy at 10 mg/kg SC for 4 days, T. vivax” value (“Efficacy … T. vivax” for short) in the series with T. vivax [4] was “No cure (0/3)”.
In the case of `CC(C)CS(=O)(=O)N[C@H]1CC[C@H](Nc2nc(N)c(C(=O)c3c(F)cc(CN4CCOCC4)cc3F)s2)CC1.Cl` [Compound 4, N-((trans)-4-((4-Amino-5-(2,6-difluoro-4-((4-morpholinomethyl)benzoyl)thiazol-2-yl)amino)cyclohexyl))-2-methylpropane-1-sulfonamide Hydrochloride], the “Bovine Microsome Cli” value in series [1] was 1 mL/min/g. In the series with T. congolense [3], the “Efficacy … T. congo” value is “No cure (0/3)”. The “Efficacy … T. vivax” value with T. vivax [4] is recorded as “No cure (0/3)”.
In the case of `CC(C)CS(=O)(=O)N[C@H]1CC[C@H](Nc2nc(N)c(C(=O)c3c(F)cc(CN4CCCC4)cc3F)s2)CC1.Cl` [Compound 5, N-((trans)-4-((-4-Amino-5-(2,6-difluoro-4-(pyrrolidin-1-ylmethyl)benzoyl)thiazol-2-yl)amino)cyclohexyl)-2-methyl-propane-1-sulfonamide Hydrochloride], in series [1], the “Bovine Microsome Cli” value is recorded as less than 0.5 mL/min/g. For the same molecule, in series [2] (pH 7.4, range 250-12 µM), the kinetic solubility at 24 h came to 220 µM. Moreover, the “Efficacy … T. congo” value with T. congolense [3] is recorded as “Partial cure (1/3)”. The “Efficacy … T. vivax” value in the series with T. vivax [4] is given as “Full cure (3/3)”.
The term EC50 denotes the concentration that produces a half-maximal response. Low readings indicate higher potency in that assay, high ones lower potency in that assay. Turning to `CC(C)CS(=O)(=O)N[C@H]1CC[C@H](Nc2nc(N)c(C(=O)c3c(F)cc(CN4CCC4)cc3F)s2)CC1.Cl` [Compound 6, N-(((trans)-4-((4-Amino-5-(4-azetidin-1-ylmethyl)-2,6-difluorobenzoyl)thiazol-2-yl)amino)cyclohexyl)-2-methylpropane-1-sulfonamide Hydrochloride], the EC50 in the series on T. congolense [5] was 2.5 nM; in the series with T. vivax [6] it was 6.9 nM; in the series with L6 cells it was 5300 nM. In series [1], the “Bovine Microsome Cli” value was 1.3 mL/min/g. Moreover, the solubility (kinetic) in series [2] was greater than 250 µM.
With `CC(C)CS(=O)(=O)N[C@H]1CC[C@H](Nc2nc(N)c(C(=O)c3c(F)cc(CCN(C)C)cc3F)s2)CC1.Cl` [Compound 7, N-(((trans)-4-((4-Amino-5-(4-(2-dimethylamino)ethyl)-2,6-difluorobenzoyl)thiazol-2-yl)amino)cyclohexyl)-2-methylpropane-1-sulfonamide Hydrochloride], the values for the EC50 in the series with T. congolense [5], in the series on T. vivax [6] and in the series with L6 cells were 16 nM, 1 nM and 18000 nM, respectively. Further, the “Bovine Microsome Cli” value in series [1] was found to be 0.8 mL/min/g. For the same molecule, the solubility (kinetic) in series [2] was greater than 250 µM.
The matching figures for `CC(C)CS(=O)(=O)N[C@H]1CC[C@H](Nc2nc(N)c(C(=O)c3c(F)cc(CN)cc3F)s2)CC1.Cl` [Compound 9, N-((trans)-4-((4-Amino-5-(4-(aminomethyl)-2,6-difluorobenzoyl)thiazol-2-yl)amino)cyclohexyl)-2-methylpropane-1-sulfonamide Hydrochloride]: 8.3 nM, 0.5 nM, 5900 nM, less than 0.5 mL/min/g and greater than 250 µM.

The record behind these values is PMC9014415, “Repositioning of a Diaminothiazole Series Confirmed to Target the Cyclin-Dependent Kinase CRK12 for Use in the Treatment of African Animal Trypanosomiasis” (Journal of Medicinal Chemistry, 2022).
